Reference: the NIST ThermoML archive (doi:10.1021/acs.jced.7b00106)
Numbers after ± are expanded uncertainties.

Conditions: Hot wire method

FC(F)(F)/C=C/Cl [(E)-1-chloro-3,3,3-trifluoroprop-1-ene]
thermal conductivity (343.36 K, 65455 kPa, Liquid): 0.09919 ± 0.0076 W/m/K
thermal conductivity (343.39 K, 244 kPa, Gas): 0.01403 ± 0.0005 W/m/K
thermal conductivity (343.41 K, 34281 kPa, Liquid): 0.08798 ± 0.0079 W/m/K
thermal conductivity (343.43 K, 53923 kPa, Liquid): 0.09546 ± 0.008 W/m/K
thermal conductivity (343.44 K, 254 kPa, Gas): 0.0143 ± 0.0005 W/m/K
thermal conductivity (343.54 K, 43743 kPa, Liquid): 0.09133 ± 0.0079 W/m/K
thermal conductivity (343.62 K, 34264 kPa, Liquid): 0.08757 ± 0.0066 W/m/K
thermal conductivity (343.63 K, 177 kPa, Gas): 0.01444 ± 0.00051 W/m/K
thermal conductivity (343.68 K, 26051 kPa, Liquid): 0.08479 ± 0.0055 W/m/K
thermal conductivity (343.71 K, 368 kPa, Gas): 0.01422 ± 0.0005 W/m/K
thermal conductivity (343.72 K, 113 kPa, Gas): 0.01433 ± 0.00051 W/m/K
thermal conductivity (343.77 K, 19020 kPa, Liquid): 0.08131 ± 0.0047 W/m/K
thermal conductivity (343.82 K, 116 kPa, Gas): 0.01436 ± 0.00051 W/m/K
thermal conductivity (343.85 K, 65463 kPa, Liquid): 0.09884 ± 0.0065 W/m/K
thermal conductivity (343.89 K, 252 kPa, Gas): 0.01433 ± 0.00051 W/m/K
thermal conductivity (343.9 K, 26047 kPa, Liquid): 0.08436 ± 0.0032 W/m/K
thermal conductivity (343.93 K, 12786 kPa, Liquid): 0.07777 ± 0.0024 W/m/K
thermal conductivity (343.93 K, 53925 kPa, Liquid): 0.09489 ± 0.0078 W/m/K
thermal conductivity (343.97 K, 19023 kPa, Liquid): 0.08066 ± 0.0046 W/m/K
thermal conductivity (344.06 K, 43740 kPa, Liquid): 0.09102 ± 0.0049 W/m/K
thermal conductivity (344.06 K, 65472 kPa, Liquid): 0.09859 ± 0.0066 W/m/K
thermal conductivity (344.08 K, 176 kPa, Gas): 0.01441 ± 0.00051 W/m/K
thermal conductivity (344.15 K, 365 kPa, Gas): 0.0142 ± 0.0005 W/m/K
thermal conductivity (344.15 K, 53918 kPa, Liquid): 0.09481 ± 0.0079 W/m/K
thermal conductivity (344.17 K, 12778 kPa, Liquid): 0.07722 ± 0.0032 W/m/K
thermal conductivity (344.2 K, 113 kPa, Gas): 0.01446 ± 0.00051 W/m/K
thermal conductivity (344.28 K, 117 kPa, Gas): 0.01435 ± 0.00051 W/m/K
thermal conductivity (344.3 K, 43734 kPa, Liquid): 0.09086 ± 0.005 W/m/K
thermal conductivity (344.35 K, 250 kPa, Gas): 0.01435 ± 0.00051 W/m/K
thermal conductivity (344.48 K, 465 kPa, Gas): 0.01396 ± 0.00049 W/m/K
thermal conductivity (344.56 K, 175 kPa, Gas): 0.01444 ± 0.00051 W/m/K
thermal conductivity (344.7 K, 114 kPa, Gas): 0.01426 ± 0.0005 W/m/K
thermal conductivity (344.79 K, 119 kPa, Gas): 0.01436 ± 0.00051 W/m/K
thermal conductivity (344.84 K, 248 kPa, Gas): 0.01433 ± 0.00051 W/m/K
thermal conductivity (344.84 K, 463 kPa, Gas): 0.01404 ± 0.00058 W/m/K
thermal conductivity (344.95 K, 465 kPa, Gas): 0.01434 ± 0.00054 W/m/K
thermal conductivity (345.08 K, 174 kPa, Gas): 0.01445 ± 0.00051 W/m/K
thermal conductivity (345.19 K, 360 kPa, Gas): 0.01419 ± 0.0005 W/m/K
thermal conductivity (345.23 K, 114 kPa, Gas): 0.01452 ± 0.00051 W/m/K
thermal conductivity (345.31 K, 120 kPa, Gas): 0.01441 ± 0.00051 W/m/K
thermal conductivity (345.34 K, 463 kPa, Gas): 0.01431 ± 0.00052 W/m/K
thermal conductivity (345.37 K, 246 kPa, Gas): 0.01436 ± 0.00051 W/m/K
thermal conductivity (345.44 K, 465 kPa, Gas): 0.0143 ± 0.0005 W/m/K
thermal conductivity (345.7 K, 358 kPa, Gas): 0.01431 ± 0.0005 W/m/K
thermal conductivity (345.9 K, 245 kPa, Gas): 0.01451 ± 0.00051 W/m/K
thermal conductivity (361.58 K, 586 kPa, Fluid (supercritical or subcritical phases)): 0.01605 ± 0.0014 W/m/K
thermal conductivity (361.67 K, 483 kPa, Fluid (supercritical or subcritical phases)): 0.01602 ± 0.0013 W/m/K
thermal conductivity (361.68 K, 45282 kPa, Liquid): 0.08799 ± 0.0024 W/m/K
thermal conductivity (361.69 K, 33938 kPa, Liquid): 0.0832 ± 0.0012 W/m/K
thermal conductivity (361.69 K, 33954 kPa, Liquid): 0.08326 ± 0.0029 W/m/K
thermal conductivity (361.7 K, 45281 kPa, Liquid): 0.08796 ± 0.0018 W/m/K
thermal conductivity (361.73 K, 23489 kPa, Liquid): 0.07844 ± 0.0025 W/m/K
thermal conductivity (361.74 K, 23503 kPa, Liquid): 0.07846 ± 0.0029 W/m/K
thermal conductivity (361.77 K, 371 kPa, Fluid (supercritical or subcritical phases)): 0.01613 ± 0.0014 W/m/K
thermal conductivity (361.79 K, 26408 kPa, Liquid): 0.07982 ± 0.0022 W/m/K
thermal conductivity (361.8 K, 26407 kPa, Liquid): 0.07977 ± 0.0018 W/m/K
thermal conductivity (361.83 K, 39898 kPa, Liquid): 0.0857 ± 0.0085 W/m/K
thermal conductivity (361.83 K, 39907 kPa, Liquid): 0.0857 ± 0.0086 W/m/K
thermal conductivity (361.88 K, 33923 kPa, Liquid): 0.08317 ± 0.0014 W/m/K
thermal conductivity (361.89 K, 33938 kPa, Liquid): 0.0832 ± 0.0017 W/m/K
thermal conductivity (361.92 K, 588 kPa, Fluid (supercritical or subcritical phases)): 0.01611 ± 0.0016 W/m/K
thermal conductivity (361.93 K, 45278 kPa, Liquid): 0.08791 ± 0.0016 W/m/K
thermal conductivity (361.94 K, 45270 kPa, Liquid): 0.08806 ± 0.0016 W/m/K
thermal conductivity (361.98 K, 23477 kPa, Liquid): 0.07836 ± 0.00088 W/m/K
thermal conductivity (361.98 K, 23492 kPa, Liquid): 0.07838 ± 0.0018 W/m/K
thermal conductivity (362.01 K, 484 kPa, Fluid (supercritical or subcritical phases)): 0.01607 ± 0.002 W/m/K
thermal conductivity (362.05 K, 26376 kPa, Liquid): 0.07972 ± 0.0009 W/m/K
thermal conductivity (362.05 K, 26398 kPa, Liquid): 0.07971 ± 0.0012 W/m/K
thermal conductivity (362.05 K, 39862 kPa, Liquid): 0.08563 ± 0.0016 W/m/K
thermal conductivity (362.08 K, 39906 kPa, Liquid): 0.08546 ± 0.0021 W/m/K
thermal conductivity (362.14 K, 33914 kPa, Liquid): 0.08314 ± 0.00095 W/m/K
thermal conductivity (362.14 K, 33942 kPa, Liquid): 0.08313 ± 0.0019 W/m/K
